# According to patent US20260226034A1 (The Rockefeller University, priority 2023, published 2026):
# Biological target: NSP14 (Severe acute respiratory syndrome coronavirus 2, UniProt P0DTD1)
# Experiment: NSP14 MTase inhibition assay at 37° C. (MTase-Glo SAH detection)
# Assay type: biochemical, SARS-CoV-2
# Conditions: 37° C., 0.3 nM NSP14, 2.5 μM SAM, 2.5 μM GpppA RNA; read-out: Nsp14 Mtase Inh. IC50
row,SMILES,IC50
1,Cc1c(S(=O)(=O)c2ccc3[nH]ncc3c2)cc(C(=O)NCc2cccc3c2N(C)C(=O)C3(F)F)n1C [B.26],0.49 nM
2,Cc1cc(S(=O)(=O)c2cc(C(=O)NCc3c(F)ccc4ncn(C5CC5)c34)n(C)c2C)cc2cn[nH]c12 [B.27],0.21 nM
3,Cc1cc(S(=O)(=O)c2cc(C(=O)NCc3c(F)ccc4cnn(C5CC5)c34)n(C)c2C)cc2cn[nH]c12 [B.28],0.24 nM
4,Cc1c(S(=O)(=O)c2ccc3[nH]nc(C#N)c3c2)cc(C(=O)NCc2cccc3cnn(C)c23)n1C [B.29],138 nM
5,Cc1c(S(=O)(=O)c2cnc3[nH]ncc3c2)cc(C(=O)NCc2cccc3cnn(C)c23)n1C [B.30],4.6 nM
6,Cc1c(S(=O)(=O)c2ccc3[nH]ncc3c2)cc(C(=O)NCc2cccc3c(F)n[nH]c23)n1C [B.31],5.4 nM
7,Cc1c(S(=O)(=O)c2ccc3[nH]ncc3c2)cc(C(=O)NCc2cccc3c2N(C)C(=O)C32CC2)n1C [B.32],0.18 nM
8,Cc1c(S(=O)(=O)c2ccc3[nH]ncc3c2)cc(C(=O)NCc2cccc3c2ccc(=O)n3C)n1C [B.33],0.35 nM
9,Cc1c(S(=O)(=O)c2ccc3[nH]ncc3c2)cc(C(=O)NCc2cccc3nnn(C)c23)n1C [B.34],0.2 nM
10,Cc1c(S(=O)(=O)c2ccc3[nH]ncc3c2)cc(C(=O)NCc2cccc3c(F)nn(C4CC4)c23)n1C [B.35],3.3 nM
11,Cc1c(S(=O)(=O)c2ccc3[nH]ncc3c2)cc(C(=O)NCc2ccc(F)c3cnn(C)c23)n1C [B.36],0.41 nM
12,Cc1c(S(=O)(=O)c2cnc3[nH]ncc3c2)cc(C(=O)NCc2cccc3cnn(C4CC4)c23)n1C [B.37],10 nM
13,Cc1c(S(=O)(=O)c2ccc3[nH]nc(F)c3c2)cc(C(=O)NCc2cncnc2N2CCC(F)(F)C2)n1C [B.38],0.56 nM
14,Cc1c(S(=O)(=O)c2ccc3[nH]nc(F)c3c2)cc(C(=O)NCc2ccccc2N2CCC(F)(F)C2)n1C [B.39],5.2 nM
15,Cc1c(S(=O)(=O)c2ccc3[nH]ncc3c2)cc(C(=O)NCc2cncnc2N2CCC(F)(F)C2)n1C [B.40],0.22 nM
16,Cc1c(S(=O)(=O)c2cc(C3CC3)c3[nH]ncc3c2)cc(C(=O)NCc2cccc3cnn(C4CC4)c23)n1C [B.41],50 nM
17,Cc1c(S(=O)(=O)c2cc3cn[nH]c3cn2)cc(C(=O)NCc2cccc3cnn(C4CC4)c23)n1C [B.42],9.3 nM
18,Cc1c(S(=O)(=O)c2ccc3[nH]ncc3c2)cc(C(=O)NCc2c(F)ccc3nnn(C)c23)n1C [B.43],< 0.15 nM
19,Cc1c(S(=O)(=O)c2ccc3[nH]ncc3c2)cc(C(=O)NCc2cccc3c(F)nn(C)c23)n1C [B.44],0.24 nM
20,Cc1c(S(=O)(=O)c2cc(CO)c3[nH]ncc3c2)cc(C(=O)NCc2cccc3cnn(C4CC4)c23)n1C [B.45],4 nM
21,Cc1c(S(=O)(=O)c2ccc3[nH]nc(F)c3c2)cc(C(=O)NCc2c(F)ccc3cnn(C4CC4)c23)n1C [B.46],0.53 nM
22,Cc1c(S(=O)(=O)c2ccc3c(cnn3C)c2)cc(C(=O)NCc2cccnc2N2CCC(C(=O)O)C2)n1C (stereo not drawn) [B.47],1.7 nM
23,Cc1c(S(=O)(=O)c2ccc3c(cnn3C)c2)cc(C(=O)NCc2c(F)ccnc2N2CCC(C(=O)O)C2)n1C (stereo not drawn) [B.48],0.15 nM
24,Cc1c(S(=O)(=O)c2ccc3[nH]ncc3c2)cc(C(=O)NCc2cncc3cnn(C)c23)n1C [B.49],0.49 nM
25,Cc1c(S(=O)(=O)c2ccc3[nH]ncc3n2)cc(C(=O)NCc2cccc3cnn(C4CC4)c23)n1C [B.50],51 nM

row,SMILES,IC50
1,Cc1c(S(=O)(=O)c2cc(Cl)c3[nH]ncc3c2)cc(C(=O)NCc2cccc3cnn(C4CC4)c23)n1C [B.51],0.22 nM
2,Cc1c(S(=O)(=O)c2ccc3[nH]ncc3c2)cc(C(=O)NCc2c(F)ccc3c2N(C)C(=O)C3)n1C [B.52],0.15 nM
3,Cc1c(S(=O)(=O)c2ccc3[nH]ncc3c2)cc(C(=O)NCc2cccnc2C(F)(F)F)n1C [B.53],7 nM
4,Cc1c(S(=O)(=O)c2ccc3[nH]ncc3c2)cc(C(=O)NC2CCc3cc(C#N)ccc32)n1C (stereo not drawn) [B.54],2.3 nM
5,Cc1c(S(=O)(=O)c2ccc3[nH]ncc3c2)cc(C(=O)NC2CCc3ncccc32)n1C (stereo not drawn) [B.55],5.6 nM
6,Cc1c(S(=O)(=O)c2ccc3[nH]ncc3c2)cc(C(=O)NCc2ccccc2S(C)(=O)=O)n1C [B.56],2.9 nM
7,Cc1c(S(=O)(=O)c2ccc3[nH]ncc3c2)cc(C(=O)NCc2c(F)ccc3c2CCCO3)n1C [B.57],< 0.15 nM
8,Cc1c(S(=O)(=O)c2cc(F)c3[nH]ncc3c2)cc(C(=O)NCc2ncccc2F)n1C [B.58],2.3 nM
9,Cc1c(S(=O)(=O)c2cc(F)c3[nH]ncc3c2)cc(C(=O)NCc2cccc(CN3CCCC3)c2)n1C [B.59],41 nM
10,Cc1c(S(=O)(=O)c2cc(C(F)F)c3[nH]ncc3c2)cc(C(=O)NCc2cccc3cnn(C4CC4)c23)n1C [B.60],5.3 nM
11,Cc1c(S(=O)(=O)c2ccc3c(cnn3C)c2)cc(C(=O)NCc2c(F)ccc3cnn(C4CC4)c23)n1CCCC#N [B.61],2.6 nM
12,Cc1c(S(=O)(=O)c2ccc3c(cnn3C)c2)cc(C(=O)NCc2c(F)ccc3cnn(C4CC4)c23)n1CCCC(=O)O [B.62],< 0.15 nM
13,Cc1c(S(=O)(=O)c2cc(F)c3[nH]ncc3c2)cc(C(=O)NCc2c(F)ccc3cnn(C4CC4)c23)n1C [B.63],< 0.15 nM
14,Cc1c(S(=O)(=O)c2ccc3[nH]ncc3c2)cc(C(=O)NCc2cccc3nnn(C4CC4)c23)n1C [B.66],< 0.15 nM
15,Cc1c(S(=O)(=O)c2ccc3[nH]ncc3c2)cc(C(=O)NCc2ccccc2)n1C [B.67],2.6 nM
16,Cc1c(S(=O)(=O)c2ccc3[nH]ncc3c2)cc(C(=O)NCc2c(F)cc(CN(C)C)cc2F)n1C [B.68],4.1 nM
17,Cc1c(S(=O)(=O)c2ccc3[nH]ncc3c2)cc(C(=O)NCc2c(F)cc(F)c3cnn(C)c23)n1C [B.69],< 0.15 nM
18,Cc1c(S(=O)(=O)c2ccc3[nH]ncc3c2)cc(C(=O)NCc2ccc(N(C)C)nn2)n1C [B.73],116 nM
19,Cc1c(S(=O)(=O)c2ccc3[nH]ncc3c2)cc(C(=O)NCc2c(F)ccc3c2N(C)C(=O)C3(F)F)n1C [B.74],0.5 nM
20,Cc1c(S(=O)(=O)c2ccc3[nH]ncc3c2)cc(C(=O)NNc2c(F)cccc2F)n1C [B.75],9.6 nM
21,Cc1c(S(=O)(=O)c2ccc3[nH]ncc3c2)cc(C(=O)NCc2ccccc2F)n1C [B.76],1.6 nM
22,Cc1c(S(=O)(=O)c2ccc3[nH]ncc3c2)cc(C(=O)NCc2cccc(OCC(F)(F)F)c2)n1C [B.77],2.9 nM
23,Cc1c(S(=O)(=O)c2ccc3[nH]ncc3c2)cc(C(=O)NCc2c(F)cccc2OCCN(C)C)n1C [B.78],2 nM
24,Cc1c(S(=O)(=O)c2cc(Cl)c3[nH]ncc3c2)cc(C(=O)NCc2c(F)ccc3cnn(C4CC4)c23)n1C [B.79],0.17 nM
25,Cc1c(S(=O)(=O)c2ccc3[nH]nc(F)c3c2)cc(C(=O)NCc2cccc3c(F)nn(C4CC4)c23)n1C [B.80],1.5 nM

row,SMILES,IC50
1,Cc1c(S(=O)(=O)c2ccc3[nH]ncc3c2)cc(C(=O)NCc2c(F)ccc3nnn(C4CC4)c23)n1C [B.81],< 0.15 nM
2,Cc1c(S(=O)(=O)c2ccc3[nH]nc(F)c3c2)cc(C(=O)NCc2c(F)ccc3nnn(C4CC4)c23)n1C [B.82],< 0.15 nM
3,Cc1c(S(=O)(=O)c2ccc3[nH]ncc3c2)cc(C(=O)NCc2ncccc2C(F)(F)F)n1C [B.83],5.3 nM
4,Cc1c(S(=O)(=O)c2ccc3[nH]ncc3c2)cc(C(=O)NCc2c(Cl)cccc2Cl)n1C [B.84],0.18 nM
5,Cc1c(S(=O)(=O)c2ccc3[nH]ncc3c2)cc(C(=O)NCc2c(F)cccc2Cl)n1C [B.85],0.2 nM
6,Cc1c(S(=O)(=O)c2ccc3[nH]ncc3c2)cc(C(=O)NCc2c(F)cc(F)cc2F)n1C [B.86],0.41 nM
7,Cc1c(S(=O)(=O)c2cc(F)c3[nH]ncc3c2)cc(C(=O)NCc2c(F)ccc3cnn(C4CC4)c23)n1CCO [B.89],0.1 nM
8,O=C(NCc1c(F)ccc2ncn(C3CC3)c12)c1cc(S(=O)(=O)c2cc(F)c3[nH]ncc3c2)c2n1CCC2 [B.90],0.21 nM
9,O=C(NCc1c(F)ccc2ncn(C3CC3)c12)c1cc(S(=O)(=O)c2ccc3[nH]nc(F)c3c2)c2n1CCC2 [B.91],0.28 nM
10,COCc1cc(S(=O)(=O)c2cc(C(=O)NCc3cccc4cnn(C5CC5)c34)n(C)c2C)cc2cn[nH]c12 [B.93],68 nM
11,Cc1c(S(=O)(=O)c2cc(F)c3[nH]ncc3c2)cc(C(=O)NCc2c(F)ccc3nnn(C4CC4)c23)n1C [B.94],< 0.15 nM
12,Cc1c(S(=O)(=O)c2ccc3[nH]nc(F)c3c2)cc(C(=O)NCc2c[nH]c(=O)c3ccccc23)n1C [B.95],2.2 nM
13,Cc1c(S(=O)(=O)c2ccc3[nH]ncc3c2)cc(C(=O)NCc2cc(F)cc3cnn(C)c23)n1C [B.96],1 nM
14,Cc1c(S(=O)(=O)c2ccc3[nH]ncc3c2)cc(C(=O)NCc2cc(F)cc3cn(C)nc23)n1C [B.97],11 nM
15,Cc1c(S(=O)(=O)c2cc(C#N)c3[nH]ncc3c2)cc(C(=O)NCc2c(F)ccc3cnn(C4CC4)c23)n1C [B.98],0.5 nM
16,Cc1c(S(=O)(=O)c2cc(F)c3[nH]nc(F)c3c2)cc(C(=O)NCc2c(F)ccc3cnn(C4CC4)c23)n1C [B.99],0.15 nM
17,Cc1c(S(=O)(=O)c2ccc3[nH]ncc3c2)cc(C(=O)NCc2ccnn2C)n1C [B.100],12 nM
18,Cc1c(S(=O)(=O)c2ccc3[nH]ncc3c2)cc(C(=O)NCc2ccccc2C#N)n1C [B.101],192 nM
19,Cc1c(S(=O)(=O)c2cc(F)c3[nH]ncc3c2)cc(C(=O)NCc2c(F)ccc3ncn(C4CC4)c23)n1C [B.102],< 0.15 nM
20,Cc1c(S(=O)(=O)c2ccc3[nH]nc(F)c3c2)cc(C(=O)NCc2c(F)ccc3ncn(C4CC4)c23)n1C [B.103],< 0.15 nM
21,Cc1c(S(=O)(=O)c2ccc3[nH]ncc3c2)cc(C(=O)NCc2ccc(=O)[nH]c2)n1C [B.104],27 nM
22,Cc1c(S(=O)(=O)c2ccc3[nH]nc(F)c3c2)cc(C(=O)NCc2c(F)ccc3c2N(C)C(=O)C3(F)F)n1C [B.105],0.15 nM
23,Cc1c(S(=O)(=O)c2cc(C#N)c3[nH]ncc3c2)cc(C(=O)NCc2cccc3cnn(C4CC4)c23)n1C [B.106],0.32 nM
24,Cc1c(S(=O)(=O)c2ccc3[nH]ncc3c2)cc(C(=O)NCc2c(F)cncc2F)n1C [B.107],0.12 nM
25,Cc1c(S(=O)(=O)c2ccc3[nH]ncc3c2)cc(C(=O)NCc2c(F)cccc2OCCS(C)(=O)=O)n1C [B.108],< 0.15 nM
